Laboratory results: ChEMBL document CHEMBL5291721, “A preclinical secondary pharmacology resource illuminates target-adverse drug reaction associations of marketed drugs” (Nat Commun, 2023)

Legend:
[1] = target: Gamma-aminobutyric acid receptor subunit alpha-1 (Rattus norvegicus, UniProt P62813)
[2] = target: T1, Alpha-1A adrenergic receptor (Homo sapiens, UniProt P35348); type: functional, cell-based
T1 sequence (P35348 whole entry): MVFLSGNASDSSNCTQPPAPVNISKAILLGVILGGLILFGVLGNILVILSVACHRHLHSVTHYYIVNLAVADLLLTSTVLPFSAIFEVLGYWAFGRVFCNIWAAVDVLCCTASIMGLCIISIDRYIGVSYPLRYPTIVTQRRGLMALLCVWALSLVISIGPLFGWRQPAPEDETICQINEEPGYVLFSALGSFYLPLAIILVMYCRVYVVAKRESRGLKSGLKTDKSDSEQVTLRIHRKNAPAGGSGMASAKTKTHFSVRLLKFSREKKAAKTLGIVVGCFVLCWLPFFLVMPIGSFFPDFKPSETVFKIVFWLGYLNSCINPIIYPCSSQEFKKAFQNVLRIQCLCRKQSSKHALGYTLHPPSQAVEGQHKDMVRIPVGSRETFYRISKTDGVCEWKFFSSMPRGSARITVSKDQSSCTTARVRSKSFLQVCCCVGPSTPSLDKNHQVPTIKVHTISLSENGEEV

[3] = target: T2, 5-hydroxytryptamine receptor 3A (Homo sapiens, UniProt P46098); type: functional
T2 sequence (P46098 whole entry): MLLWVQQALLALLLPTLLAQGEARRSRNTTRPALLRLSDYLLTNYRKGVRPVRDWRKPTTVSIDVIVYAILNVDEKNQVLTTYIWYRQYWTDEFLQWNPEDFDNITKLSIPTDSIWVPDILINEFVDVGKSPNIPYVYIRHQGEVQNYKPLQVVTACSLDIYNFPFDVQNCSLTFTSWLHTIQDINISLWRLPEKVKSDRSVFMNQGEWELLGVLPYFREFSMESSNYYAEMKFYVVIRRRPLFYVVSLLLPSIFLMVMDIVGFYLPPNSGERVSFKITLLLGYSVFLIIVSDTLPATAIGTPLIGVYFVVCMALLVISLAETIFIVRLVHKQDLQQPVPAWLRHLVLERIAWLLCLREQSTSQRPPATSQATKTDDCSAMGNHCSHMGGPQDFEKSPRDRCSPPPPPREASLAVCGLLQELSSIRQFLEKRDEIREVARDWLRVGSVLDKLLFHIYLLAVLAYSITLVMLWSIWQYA

[4] = target: T3, Androgen receptor (Homo sapiens, UniProt P10275)
T3 sequence (P10275 whole entry): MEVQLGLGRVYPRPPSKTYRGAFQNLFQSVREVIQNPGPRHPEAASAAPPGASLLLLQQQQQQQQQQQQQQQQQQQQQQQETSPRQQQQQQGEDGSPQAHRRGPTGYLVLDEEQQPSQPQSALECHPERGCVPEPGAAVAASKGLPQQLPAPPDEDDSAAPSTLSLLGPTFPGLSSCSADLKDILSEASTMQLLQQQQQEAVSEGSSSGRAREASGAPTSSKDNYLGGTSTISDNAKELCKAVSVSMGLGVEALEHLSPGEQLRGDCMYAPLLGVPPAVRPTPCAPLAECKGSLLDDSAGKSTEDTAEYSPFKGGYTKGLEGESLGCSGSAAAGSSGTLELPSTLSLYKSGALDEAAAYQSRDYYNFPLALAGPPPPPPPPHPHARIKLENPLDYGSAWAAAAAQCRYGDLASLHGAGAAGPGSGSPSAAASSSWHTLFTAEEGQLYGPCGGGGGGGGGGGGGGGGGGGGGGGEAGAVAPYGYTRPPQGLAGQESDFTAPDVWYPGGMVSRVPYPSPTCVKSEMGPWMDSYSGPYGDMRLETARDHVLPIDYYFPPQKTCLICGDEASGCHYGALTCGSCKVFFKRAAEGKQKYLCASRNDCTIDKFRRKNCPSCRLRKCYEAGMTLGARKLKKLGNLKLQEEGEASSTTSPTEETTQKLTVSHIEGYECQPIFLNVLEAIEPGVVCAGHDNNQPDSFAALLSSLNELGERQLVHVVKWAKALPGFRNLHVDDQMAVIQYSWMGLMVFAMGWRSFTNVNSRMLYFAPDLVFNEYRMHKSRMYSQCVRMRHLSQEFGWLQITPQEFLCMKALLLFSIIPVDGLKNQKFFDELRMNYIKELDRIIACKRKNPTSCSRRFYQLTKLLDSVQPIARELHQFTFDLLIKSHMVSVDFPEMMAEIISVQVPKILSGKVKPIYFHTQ

[5] = target: 3',5'-cyclic-AMP phosphodiesterase 4D (Homo sapiens, UniProt Q08499); type: functional
Chain of 3',5'-cyclic-AMP phosphodiesterase 4D (Q08499 whole entry): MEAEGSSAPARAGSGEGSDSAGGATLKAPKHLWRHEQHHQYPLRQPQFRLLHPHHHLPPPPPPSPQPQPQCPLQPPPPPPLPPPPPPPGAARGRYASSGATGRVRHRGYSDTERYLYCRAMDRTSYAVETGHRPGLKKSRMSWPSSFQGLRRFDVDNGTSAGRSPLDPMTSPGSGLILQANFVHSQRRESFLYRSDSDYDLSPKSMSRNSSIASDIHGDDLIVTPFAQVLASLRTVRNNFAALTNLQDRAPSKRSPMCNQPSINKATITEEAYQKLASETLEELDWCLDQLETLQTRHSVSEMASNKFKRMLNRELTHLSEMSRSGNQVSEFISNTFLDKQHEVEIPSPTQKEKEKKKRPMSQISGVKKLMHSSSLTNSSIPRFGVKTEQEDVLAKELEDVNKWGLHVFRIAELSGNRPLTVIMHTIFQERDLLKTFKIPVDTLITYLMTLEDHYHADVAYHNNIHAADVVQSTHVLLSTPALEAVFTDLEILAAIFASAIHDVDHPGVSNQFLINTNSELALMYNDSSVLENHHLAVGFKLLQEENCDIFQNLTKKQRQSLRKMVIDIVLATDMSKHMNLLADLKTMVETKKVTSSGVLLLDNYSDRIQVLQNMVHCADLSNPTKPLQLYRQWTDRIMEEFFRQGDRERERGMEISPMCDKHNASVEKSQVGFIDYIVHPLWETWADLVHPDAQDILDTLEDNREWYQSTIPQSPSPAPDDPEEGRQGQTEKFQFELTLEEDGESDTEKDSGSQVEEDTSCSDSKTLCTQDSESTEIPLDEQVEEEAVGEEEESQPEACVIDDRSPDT

[6] = target: T1, Alpha-1A adrenergic receptor; type: functional, cell-based; remark: listed apart in the source
[7] = target: D(1A) dopamine receptor (Homo sapiens, UniProt P21728); type: functional, cell-based
Chain of D(1A) dopamine receptor (P21728 whole entry): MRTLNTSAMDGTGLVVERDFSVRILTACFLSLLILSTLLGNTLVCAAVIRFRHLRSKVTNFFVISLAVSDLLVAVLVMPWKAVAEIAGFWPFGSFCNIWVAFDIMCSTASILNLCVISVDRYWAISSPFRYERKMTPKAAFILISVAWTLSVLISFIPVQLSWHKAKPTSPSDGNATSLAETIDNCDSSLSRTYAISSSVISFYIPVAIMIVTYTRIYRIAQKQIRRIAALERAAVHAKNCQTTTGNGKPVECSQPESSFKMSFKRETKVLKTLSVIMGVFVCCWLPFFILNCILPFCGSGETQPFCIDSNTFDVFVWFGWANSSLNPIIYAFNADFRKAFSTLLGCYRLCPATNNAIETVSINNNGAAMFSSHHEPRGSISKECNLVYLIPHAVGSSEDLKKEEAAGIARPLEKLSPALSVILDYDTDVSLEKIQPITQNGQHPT

[8] = target: T4, Equilibrative nucleoside transporter 1 (Homo sapiens, UniProt Q99808)
T4 sequence (Q99808 whole entry): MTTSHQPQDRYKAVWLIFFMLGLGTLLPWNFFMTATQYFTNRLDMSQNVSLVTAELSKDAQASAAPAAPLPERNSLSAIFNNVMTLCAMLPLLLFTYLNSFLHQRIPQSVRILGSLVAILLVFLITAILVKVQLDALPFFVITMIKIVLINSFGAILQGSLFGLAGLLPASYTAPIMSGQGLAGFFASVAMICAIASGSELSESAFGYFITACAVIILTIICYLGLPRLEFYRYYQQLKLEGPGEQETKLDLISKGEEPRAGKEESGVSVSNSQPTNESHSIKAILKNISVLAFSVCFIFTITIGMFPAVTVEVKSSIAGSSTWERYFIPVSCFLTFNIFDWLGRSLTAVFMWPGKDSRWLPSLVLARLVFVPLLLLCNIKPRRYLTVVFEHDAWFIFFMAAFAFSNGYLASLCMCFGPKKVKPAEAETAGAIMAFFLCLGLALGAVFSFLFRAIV

[9] = target: T5, Endothelin-1 receptor (Homo sapiens, UniProt P25101)
T5 sequence (P25101 whole entry): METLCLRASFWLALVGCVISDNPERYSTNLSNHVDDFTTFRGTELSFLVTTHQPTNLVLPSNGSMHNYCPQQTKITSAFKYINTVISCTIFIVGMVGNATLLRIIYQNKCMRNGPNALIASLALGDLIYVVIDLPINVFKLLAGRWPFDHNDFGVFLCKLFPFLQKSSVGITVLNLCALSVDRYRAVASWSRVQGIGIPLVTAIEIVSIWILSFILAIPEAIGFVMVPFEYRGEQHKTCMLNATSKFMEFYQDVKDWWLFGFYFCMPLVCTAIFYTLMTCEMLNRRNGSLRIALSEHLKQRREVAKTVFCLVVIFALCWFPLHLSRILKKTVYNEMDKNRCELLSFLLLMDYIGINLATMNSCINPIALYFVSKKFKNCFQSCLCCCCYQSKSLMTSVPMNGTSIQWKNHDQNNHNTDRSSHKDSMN
Note: assay procedure not described here.

Chain of Gamma-aminobutyric acid receptor subunit alpha-1 (P62813 whole entry): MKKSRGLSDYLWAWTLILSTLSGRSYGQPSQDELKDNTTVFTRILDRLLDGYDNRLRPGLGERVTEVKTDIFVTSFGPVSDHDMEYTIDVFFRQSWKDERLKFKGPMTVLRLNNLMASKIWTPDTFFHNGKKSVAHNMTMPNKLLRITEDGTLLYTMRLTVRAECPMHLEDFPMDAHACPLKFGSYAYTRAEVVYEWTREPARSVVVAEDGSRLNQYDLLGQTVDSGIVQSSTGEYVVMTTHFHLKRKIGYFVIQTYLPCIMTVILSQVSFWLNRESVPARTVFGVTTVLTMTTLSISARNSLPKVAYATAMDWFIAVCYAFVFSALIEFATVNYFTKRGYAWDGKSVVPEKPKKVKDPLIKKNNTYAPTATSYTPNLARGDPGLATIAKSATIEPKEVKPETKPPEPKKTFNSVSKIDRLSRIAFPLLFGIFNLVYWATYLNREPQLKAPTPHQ

SMILES	AC50 [1] [µM]	AC50 [2] [µM]	AC50 [3] [µM]	AC50 [4] [µM]	AC50 [5] [µM]	AC50 [6] [µM]	AC50 [7] [µM]	AC50 [8] [µM]	AC50 [9] [µM]
C[N+](C)(C)CCOP(=O)(O)OP(=O)([O-])OC[C@H]1O[C@@H](n2ccc(N)nc2=O)[C@H](O)[C@@H]1O [CITICOLINE]	> 30	> 30	> 30	> 30	> 30	> 30	> 30		
O=C(O)Cc1ccccc1Nc1c(Cl)cccc1Cl [DICLOFENAC]	> 10	> 3	> 10	> 3	> 30	> 30	> 10	> 30	> 30
CC(C)C(=O)Oc1ccc(CO)cc1[C@H](CCN(C(C)C)C(C)C)c1ccccc1 [FESOTERODINE]		> 30		> 30					
Cc1ccc(C)c(OCCCC(C)(C)C(=O)O)c1 [GEMFIBROZIL]	> 10	> 30	> 30	> 30	> 30	> 30	> 10	> 30	> 30
COc1ccccc1OC1(C)OC(=O)c2ccccc2O1 (stereo not drawn) [GUAIMESAL]		> 30		> 30				> 30	> 30
CCCCC(CC)CN1CN(CC(CC)CCCC)CC(C)(N)C1 (stereo not drawn) [HEXETIDINE]		> 30		> 30					
CC(C)[C@@H]1CC[C@@H](C)C[C@H]1O [LEVOMENTHOL]		> 30		> 30					
COC(=O)[C@@H](N)Cc1ccc(O)c(O)c1 [MELEVODOPA]		> 30		> 30					
CN(C)c1ccc(O)c2c1C[C@H]1C[C@H]3[C@H](N(C)C)C(O)=C(C(N)=O)C(=O)[C@@]3(O)C(O)=C1C2=O [MINOCYCLINE]		> 30		> 30					
CCNC(=O)/C=C(C)/C=C/C=C(C)/C=C/c1c(C)cc(OC)c(C)c1C [MOTRETINIDE]		> 30		> 30					
C=CC(=O)Nc1cccc(Oc2nc(Nc3ccc(N4CCN(C)CC4)cc3)nc3ccsc23)c1 [OLMUTINIB]		4.91		> 30					
CCCCC1C(=O)N(c2ccccc2)N(c2ccc(O)cc2)C1=O (stereo not drawn) [OXYPHENBUTAZONE ANHYDROUS]		> 30		> 30					
Nc1cccc2c1C(=O)N(C1CCC(=O)NC1=O)C2=O (stereo not drawn) [POMALIDOMIDE]		> 30		> 30					
Cc1ccsc1C(=CCCN1CCC[C@@H](C(=O)O)C1)c1sccc1C [TIAGABINE]		> 30		> 30					
Cc1ccc(C(=O)c2ccc(CC(=O)O)n2C)cc1 [TOLMETIN]		> 30		> 30					
CC[C@]12CCCN3CCc4c(n(c5ccccc45)[C@@](O)(C(=O)OC)C1)[C@@H]32 [VINCAMINE]		> 30		> 30					
